Experiments:
human IGF1R (hIGF1R) = molecular target: T1, human IGF1R (hIGF1R) (Homo sapiens, UniProt P08069); experiment: TR-FRET kinase assay of purified hIGF1R; type: biochemical; conditions: activated hIGF1R 0.5 nM, 10 μM ATP, values given as pIC50 category, read-out: IGF-1R pIC50 (converted)
T1 construct: containing amino acid residues 957-1367 of human IGF1R; made in house; host or cells: Sf9 cells (baculovirus)

Colo205 = experiment: Inhibition of cell proliferation (CellTiter-Glo or InCell analyzer), Colo205; type: cell-based; conditions: Homo sapiens, COLO 205, 72 h / 3 days, values given as IC50 category
How it was run: In one

NCI-H929 = experiment: Inhibition of cell proliferation (CellTiter-Glo or InCell analyzer), NCI-H929; type: cell-based; conditions: Homo sapiens, 72 h / 3 days, values given as IC50 category
How it was run: In one

[1] = molecular target: T2, NIH-3T3 cells overexpressing human IGF-1R (Homo sapiens, UniProt P08069); experiment: IGF-1R cellular autophosphorylation (DELFIA); type: cell-based
T2 construct: expressed in transfected cells; host or cells: NIH-3T3 (mouse fibroblasts)
T2 sequence (P08069 31-1367): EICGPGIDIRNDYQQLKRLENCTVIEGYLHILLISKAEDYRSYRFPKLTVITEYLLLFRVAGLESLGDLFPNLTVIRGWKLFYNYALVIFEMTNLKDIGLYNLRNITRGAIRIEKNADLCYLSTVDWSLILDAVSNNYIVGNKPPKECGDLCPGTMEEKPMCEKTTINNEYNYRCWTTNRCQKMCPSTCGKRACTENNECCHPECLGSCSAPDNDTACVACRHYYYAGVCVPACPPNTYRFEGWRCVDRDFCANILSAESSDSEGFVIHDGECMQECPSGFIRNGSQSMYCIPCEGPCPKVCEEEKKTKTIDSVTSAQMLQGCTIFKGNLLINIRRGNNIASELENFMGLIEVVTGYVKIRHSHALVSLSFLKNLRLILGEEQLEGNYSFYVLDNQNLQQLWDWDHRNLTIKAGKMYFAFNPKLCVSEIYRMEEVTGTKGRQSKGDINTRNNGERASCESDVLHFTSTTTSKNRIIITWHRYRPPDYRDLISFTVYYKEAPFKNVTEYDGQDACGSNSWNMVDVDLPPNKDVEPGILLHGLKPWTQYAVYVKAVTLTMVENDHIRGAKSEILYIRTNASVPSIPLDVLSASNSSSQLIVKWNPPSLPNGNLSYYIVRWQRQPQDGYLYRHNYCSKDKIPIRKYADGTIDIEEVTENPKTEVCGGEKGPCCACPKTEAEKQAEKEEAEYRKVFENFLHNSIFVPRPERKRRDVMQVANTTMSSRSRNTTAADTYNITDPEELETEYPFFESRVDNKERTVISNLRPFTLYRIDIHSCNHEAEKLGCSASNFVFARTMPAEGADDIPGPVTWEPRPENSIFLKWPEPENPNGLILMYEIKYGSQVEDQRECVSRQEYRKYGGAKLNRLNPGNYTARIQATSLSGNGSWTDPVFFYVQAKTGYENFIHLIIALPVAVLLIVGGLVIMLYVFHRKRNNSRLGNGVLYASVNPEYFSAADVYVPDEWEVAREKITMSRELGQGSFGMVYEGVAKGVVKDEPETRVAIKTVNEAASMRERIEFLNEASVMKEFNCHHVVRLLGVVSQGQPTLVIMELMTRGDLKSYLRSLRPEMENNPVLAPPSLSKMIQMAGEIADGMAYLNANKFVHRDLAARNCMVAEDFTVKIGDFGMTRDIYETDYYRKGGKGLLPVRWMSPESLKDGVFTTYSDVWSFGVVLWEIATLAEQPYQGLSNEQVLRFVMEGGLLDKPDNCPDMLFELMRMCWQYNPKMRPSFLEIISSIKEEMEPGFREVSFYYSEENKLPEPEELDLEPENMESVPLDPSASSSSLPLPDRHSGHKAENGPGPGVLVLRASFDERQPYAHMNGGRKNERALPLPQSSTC
How it was run: (§1)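 Receptor autophosphorylation measured by DELFIA, capturing IGF-1R or IRβ and detecting with europium anti-pTyr, reported as percent of IGF-1- or insulin-stimulated signal. Compounds (30 uM to 1.5 nM) added 2 h before ligand, then 15 min stimulation (IGF-1 30 ng/ml or insulin 3 ug/ml).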

[2] = molecular target: T3, NIH-3T3 cells overexpressing human IR (Homo sapiens, UniProt P06213); experiment: IR cellular autophosphorylation (DELFIA); type: cell-based; conditions: 2 h compound, insulin 3 ug/ml for 15 minutes, IC50 category
T3 construct: expressed in transfected cells; host or cells: NIH-3T3 (mouse fibroblasts)
T3 sequence (P06213 28-1382): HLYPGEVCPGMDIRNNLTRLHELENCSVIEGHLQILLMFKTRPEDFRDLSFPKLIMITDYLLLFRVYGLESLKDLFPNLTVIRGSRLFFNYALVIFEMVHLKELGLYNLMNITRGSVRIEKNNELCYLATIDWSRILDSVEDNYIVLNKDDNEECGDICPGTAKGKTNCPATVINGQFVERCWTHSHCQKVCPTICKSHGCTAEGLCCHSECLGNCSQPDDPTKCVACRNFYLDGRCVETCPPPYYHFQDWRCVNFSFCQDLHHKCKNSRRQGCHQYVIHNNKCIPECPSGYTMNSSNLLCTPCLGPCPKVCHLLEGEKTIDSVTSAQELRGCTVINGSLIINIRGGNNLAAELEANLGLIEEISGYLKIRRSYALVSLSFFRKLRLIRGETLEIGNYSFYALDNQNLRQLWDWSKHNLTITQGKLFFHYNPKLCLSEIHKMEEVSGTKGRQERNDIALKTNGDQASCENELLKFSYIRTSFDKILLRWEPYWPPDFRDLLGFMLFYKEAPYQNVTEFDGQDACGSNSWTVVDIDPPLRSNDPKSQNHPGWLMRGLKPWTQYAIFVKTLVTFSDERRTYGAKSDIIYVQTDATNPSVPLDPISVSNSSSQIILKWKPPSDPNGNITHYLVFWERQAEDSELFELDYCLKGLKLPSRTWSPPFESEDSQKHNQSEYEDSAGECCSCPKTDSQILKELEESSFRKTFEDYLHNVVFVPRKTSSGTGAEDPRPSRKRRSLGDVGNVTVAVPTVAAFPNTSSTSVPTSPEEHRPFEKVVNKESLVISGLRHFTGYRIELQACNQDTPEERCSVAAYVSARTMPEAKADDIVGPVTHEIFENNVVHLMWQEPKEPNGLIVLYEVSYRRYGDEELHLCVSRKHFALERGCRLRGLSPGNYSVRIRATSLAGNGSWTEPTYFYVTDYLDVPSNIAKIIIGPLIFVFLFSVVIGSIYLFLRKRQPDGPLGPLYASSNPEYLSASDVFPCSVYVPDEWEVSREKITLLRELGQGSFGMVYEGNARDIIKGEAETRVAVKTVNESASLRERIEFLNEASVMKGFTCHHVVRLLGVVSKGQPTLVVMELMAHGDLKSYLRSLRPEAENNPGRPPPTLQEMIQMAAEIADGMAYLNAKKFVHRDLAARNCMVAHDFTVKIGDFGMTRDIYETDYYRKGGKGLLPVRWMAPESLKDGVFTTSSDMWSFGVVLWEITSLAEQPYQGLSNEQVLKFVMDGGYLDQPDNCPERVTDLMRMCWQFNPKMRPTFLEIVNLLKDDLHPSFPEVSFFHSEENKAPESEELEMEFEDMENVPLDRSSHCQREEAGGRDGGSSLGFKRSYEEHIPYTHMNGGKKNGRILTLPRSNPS
How it was run: as §1

T1 sequence (P08069 957-1367): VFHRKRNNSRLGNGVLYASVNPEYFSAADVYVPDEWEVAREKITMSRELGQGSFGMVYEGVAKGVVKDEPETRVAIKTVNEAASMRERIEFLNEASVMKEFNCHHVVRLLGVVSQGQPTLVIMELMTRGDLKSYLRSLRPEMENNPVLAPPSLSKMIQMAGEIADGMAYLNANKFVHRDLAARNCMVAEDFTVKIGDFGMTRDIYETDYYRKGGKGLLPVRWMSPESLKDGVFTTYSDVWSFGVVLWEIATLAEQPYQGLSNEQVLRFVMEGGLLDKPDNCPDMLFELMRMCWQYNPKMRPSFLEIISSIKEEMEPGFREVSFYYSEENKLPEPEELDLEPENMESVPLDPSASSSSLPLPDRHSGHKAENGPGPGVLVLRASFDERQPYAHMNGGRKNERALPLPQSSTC

SMILES	IC50 (human IGF1R (hIGF1R)) [nM]	IC50 (Colo205) [nM]	IC50 (NCI-H929) [nM]	IC50 [1] [nM]	IC50 [2] [nM]
COc1cc2c(cc1Nc1nc(Nc3cc(F)cc(F)c3C(=O)NCc3ccc(F)cc3)c3cc[nH]c3n1)N(C(=O)CN(C)C)CC2 [Example 155, 2-[(2-{[1-(N,N-dimethylglycyl)-5-(methyloxy)-2,3-dihydro-1H-indol-6-yl]amino}-1H-pyrrolo[2,3-d]pyrimidin-4-yl)amino]-4,6-difluoro-N-[(4-fluorophenyl)methyl]benzamide]	1.26 to 3.98	> 1000	> 1000	100 to 500	100 to 500
COc1cc(C2CCN(C(C)C)CC2)ccc1Nc1nc(Nc2cc(F)c(F)cc2C(N)=O)c2cc[nH]c2n1 [Example 97, 4,5-difluoro-2-[(2-{[4-[1-(1-methylethyl)-4-piperidinyl]-2-(methyloxy)phenyl]amino}-1H-pyrrolo[2,3-d]pyrimidin-4-yl)amino]benzamide]	0.251 to 1	< 250	< 250	< 100	< 100
CNC(=O)c1c(F)cccc1Nc1nc(Nc2cc3c(cc2OC)CCCN3C(=O)CN(C)C)nc2[nH]ccc12 [Example 212, 2-[(2-{[1-(N,N-dimethylglycyl)-6-(methyloxy)-1,2,3,4-tetrahydro-7-quinolinyl]amino}-1H-pyrrolo[2,3-d]pyrimidin-4-yl)amino]-6-fluoro-N-methylbenzamide]	1.26 to 3.98	250 to 1000	< 250	100 to 500	100 to 500
COc1cc(N2CCC(N3CCN(CCF)CC3)CC2)ccc1Nc1nc(Nc2cccc(F)c2C(N)=O)c2cc[nH]c2n1 [Example 114, 2-fluoro-6-[(2-{[4-{4-[4-(2-fluoroethyl)-1-piperazinyl]-1-piperidinyl}-2-(methyloxy)phenyl]amino}-1H-pyrrolo[2,3-d]pyrimidin-4-yl)amino]benzamide]	1.26 to 3.98	< 250	< 250	< 100	< 100
COc1cc(N2CCC(N3CCN(CCS(C)(=O)=O)CC3)CC2)ccc1Nc1nc(Nc2cccc(F)c2C(N)=O)c2cc[nH]c2n1 [Example 115, 2-fluoro-6-[(2-{[2-(methyloxy)-4-(4-{4-[2-(methylsulfonyl)ethyl]-1-piperazinyl}-1-piperidinyl)phenyl]amino}-1H-pyrrolo[2,3-d]pyrimidin-4-yl)amino]benzamide]	1.26 to 3.98	< 250	< 250	100 to 500	100 to 500
COc1cc(N2CCOCC2)ccc1Nc1nc(Nc2cc(F)ccc2C(N)=O)c2cc[nH]c2n1 [Example 83, 4-fluoro-2-[(2-{[2-(methyloxy)-4-(4-morpholinyl)phenyl]amino}-1H-pyrrolo[2,3-d]pyrimidin-4-yl)amino]benzamide]	1.26 to 3.98	> 1000	250 to 1000	< 100	< 100
COc1c(Nc2nc(Nc3cccc(F)c3C(N)=O)c3cc[nH]c3n2)ccc(N2CCN(C(C)C)CC2)c1F [Example 51, 2-fluoro-6-[(2-{[3-fluoro-4-[4-(1-methylethyl)-1-piperazinyl]-2-(methyloxy)phenyl]amino}-1H-pyrrolo[2,3-d]pyrimidin-4-yl)amino]benzamide]	1.26 to 3.98	250 to 1000	250 to 1000	> 500	> 500
CNC(=O)c1c(F)cccc1Nc1nc(Nc2cc3c(cc2OC)C(C)(C)CN3C(=O)CN(C)C)nc2[nH]ccc12 [Example 127, 2-[(2-{[1-(N,N-dimethylglycyl)-3,3-dimethyl-5-(methyloxy)-2,3-dihydro-1H-indol-6-yl]amino}-1H-pyrrolo[2,3-d]pyrimidin-4-yl)amino]-6-fluoro-N-methylbenzamide]	1.26 to 3.98	250 to 1000	< 250	< 100	< 100
COc1cc(N2CCC(N3CC[C@@H](F)C3)CC2)ccc1Nc1nc(Nc2cccc(F)c2C(N)=O)c2cc[nH]c2n1 [Example 44, 2-fluoro-6-[(2-{[4-{4-[(3R)-3-fluoro-1-pyrrolidinyl]-1-piperidinyl}-2-(methyloxy)phenyl]amino}-1H-pyrrolo[2,3-d]pyrimidin-4-yl)amino]benzamide]	1.26 to 3.98	250 to 1000	< 250	> 500	> 500
COc1cc(N2CCC(N3CC[C@H](F)C3)CC2)ccc1Nc1nc(Nc2cc(F)ccc2C(N)=O)c2cc[nH]c2n1 [Example 75, 4-fluoro-2-[(2-{[4-{4-[(3S)-3-fluoro-1-pyrrolidinyl]-1-piperidinyl}-2-(methyloxy)phenyl]amino}-1H-pyrrolo[2,3-d]pyrimidin-4-yl)amino]benzamide]	0.251 to 1	< 250	–	< 100	< 100
COc1cc(N2CCC(N3CC[C@@H](F)C3)CC2)ccc1Nc1nc(Nc2cc(F)ccc2C(N)=O)c2cc[nH]c2n1 [Example 76, 4-fluoro-2-[(2-{[4-{4-[(3R)-3-fluoro-1-pyrrolidinyl]-1-piperidinyl}-2-(methyloxy)phenyl]amino}-1H-pyrrolo[2,3-d]pyrimidin-4-yl)amino]benzamide]	0.251 to 1	250 to 1000	–	< 100	100 to 500

Now from value to compound:

IC50 (human IGF1R (hIGF1R)) [nM]	IC50 (Colo205) [nM]	IC50 (NCI-H929) [nM]	IC50 [1] [nM]	IC50 [2] [nM]	SMILES
1.26 to 3.98	< 250	< 250	100 to 500	100 to 500	COc1cc(N2CCCN(C)CC2)ccc1Nc1nc(Nc2cccc(F)c2C(N)=O)c2cc[nH]c2n1 [Example 209, 2-fluoro-6-[(2-{[4-(4-methylhexahydro-1H-1,4-diazepin-1-yl)-2-(methyloxy)phenyl]amino}-1H-pyrrolo[2,3-d]pyrimidin-4-yl)amino]benzamide]
1.26 to 3.98	> 1000	> 1000	100 to 500	> 500	COc1cc2c(cc1Nc1nc(Nc3cc(F)cc(F)c3C(=O)NC(C)C)c3cc[nH]c3n1)N(C(=O)CN(C)C)CC2 [Example 153, 2-[(2-{[1-(N,N-dimethylglycyl)-5-(methyloxy)-2,3-dihydro-1H-indol-6-yl]amino}-1H-pyrrolo[2,3-d]pyrimidin-4-yl)amino]-4,6-difluoro-N-(1-methylethyl)benzamide]
1.26 to 3.98	250 to 1000	< 250	< 100	< 100	CNC(=O)c1c(F)cccc1Nc1nc(Nc2cc3c(cc2OC)CCCN3C(=O)CN2CCCCC2)nc2[nH]ccc12 [Example 217, 2-fluoro-N-methyl-6-[(2-{[6-(methyloxy)-1-(1-piperidinylacetyl)-1,2,3,4-tetrahydro-7-quinolinyl]amino}-1H-pyrrolo[2,3-d]pyrimidin-4-yl)amino]benzamide]
1.26 to 3.98	< 250	< 250	100 to 500	–	COc1cc(N2CCC(C3CCN(CCS(C)(=O)=O)CC3)CC2)ccc1Nc1nc(Nc2cccc(F)c2C(N)=O)c2cc[nH]c2n1 [Example 112, 2-fluoro-6-({2-[(2-(methyloxy)-4-{1′-[2-(methylsulfonyl)ethyl]-4,4′-bipiperidin-1-yl}phenyl)amino]-1H-pyrrolo[2,3-d]pyrimidin-4-yl}amino)benzamide]
0.251 to 1	250 to 1000	–	< 100	100 to 500	COc1cc(C2=CCN(C(C)C)CC2)ccc1Nc1nc(Nc2cc(F)ccc2C(N)=O)c2cc[nH]c2n1 [Example 72, 4-fluoro-2-[(2-{[4-[1-(1-methylethyl)-1,2,3,6-tetrahydro-4-pyridinyl]-2-(methyloxy)phenyl]amino}-1H-pyrrolo[2,3-d]pyrimidin-4-yl)amino]benzamide]
